Assay results from patent publication US20260078108A1, “SOLID FORMS OF A ROCK INHIBITOR” (REDX PHARMA PLC, priority 2022, published 2026).

Legend:
Haspin = molecular target: T1, Haspin (Homo sapiens, UniProt Q8TF76); test: Kinase panel 33P-ATP filter assay, Haspin; assay type: biochemical; conditions: HCl salt tested; ATP Conc. 20 μM (Km); read-out: Compound IC50 (nM) Haspin
T1 sequence (Q8TF76 1-798): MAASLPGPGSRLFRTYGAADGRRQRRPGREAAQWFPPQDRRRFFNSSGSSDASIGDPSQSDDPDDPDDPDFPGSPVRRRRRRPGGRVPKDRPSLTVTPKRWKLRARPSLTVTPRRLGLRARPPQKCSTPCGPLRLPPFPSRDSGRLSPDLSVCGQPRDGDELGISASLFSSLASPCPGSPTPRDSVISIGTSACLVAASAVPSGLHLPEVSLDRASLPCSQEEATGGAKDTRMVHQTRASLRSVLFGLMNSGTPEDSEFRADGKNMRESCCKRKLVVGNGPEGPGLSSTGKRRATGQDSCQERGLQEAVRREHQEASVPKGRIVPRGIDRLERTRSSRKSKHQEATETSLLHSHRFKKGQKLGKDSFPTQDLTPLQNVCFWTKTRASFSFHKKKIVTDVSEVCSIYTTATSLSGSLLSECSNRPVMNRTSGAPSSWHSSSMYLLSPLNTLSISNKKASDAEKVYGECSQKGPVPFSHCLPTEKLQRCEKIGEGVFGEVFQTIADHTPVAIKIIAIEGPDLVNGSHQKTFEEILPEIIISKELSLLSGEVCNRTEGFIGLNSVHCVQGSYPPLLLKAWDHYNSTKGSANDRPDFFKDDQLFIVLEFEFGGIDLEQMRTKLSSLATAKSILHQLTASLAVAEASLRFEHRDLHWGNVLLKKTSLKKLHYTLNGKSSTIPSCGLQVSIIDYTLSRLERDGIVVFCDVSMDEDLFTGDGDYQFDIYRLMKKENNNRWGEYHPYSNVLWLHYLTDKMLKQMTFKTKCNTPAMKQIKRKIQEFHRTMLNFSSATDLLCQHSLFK
Method: (§1) The HCl salts of S enantiomer and the R enantiomer of compound A were tested against a panel of kinases.
(§2) Compounds were received as powder and resuspended to 10 mM DMSO stock. Compounds were tested in 10-dose IC50 mode with a 3-fold serial dilution starting at 10 μM. Control compound, staurosporine, was tested in 10-dose IC50 mode with 4-fold serial dilution starting at 20 μM.
(§3) Reaction Conditions: Buffer Conditions: 20 mM HEPES ((4-(2-hydroxyethyl)-1-piperazineethanesulfonic acid; pH 7.5), 10 mM MgCl2, 1 mM EGTA (Ethyleneglycol-bis(p-aminoethyl)-N,N,N′,N′-tetraacetic Acid), 0.01% Brij35, 0.02 mg/ml BSA (Bovine serum albumin), 0.1 mM Na3VO4, 2 mM DTT (Dithiothreitol), 1% DMSO. Reaction Procedure: 1. Prepare indicated substrate in freshly prepared reaction buffer. 2. Deliver required cofactors to the substrate solution above. 3. Deliver indicated kinase into the substrate solution and mix gently. 4. Deliver compounds in DMSO into the kinase reaction mixture utilizing acoustic technology (Echo550). 5. Deliver ^33P-ATP (specific activity 0.01 μCi/μl final) into the reaction mixture to initiate the reaction. 6. Incubate kinase reaction for 120 minutes at room temperature. 7. […] Data Analysis: Kinase activity data were expressed as the percent remaining kinase activity in test samples compared to vehicle (dimethyl sulfoxide) reactions. […]

PKN1/PRK1 = PKN1/PRK1 (Homo sapiens, UniProt Q16512); test: Kinase panel 33P-ATP filter assay, PKN1/PRK1; assay type: biochemical; conditions: HCl salt tested; ATP Conc. 15 μM (Km); read-out: Compound IC50 (nM) PKN1/PRK1
Method: as §1, §2, §3

CB1 (h) = molecular target: T2, CB1 (h) (Homo sapiens, UniProt P21554); test: CEREP panel CB1 (h) agonist effect, cAMP HTRF; assay type: cell-based; conditions: HCl salt tested, CHO cells
T2 construct: expressed in transfected cells; host or cells: CHO cells
Text: (§4) The use of in vitro pharmacological screening against a diverse range of targets (receptors, ion channels, enzymes and transporters) is used to identify undesirable off-target activity that may cause adverse drug reactions in humans. Screening panels (e.g. SafetyScreen44™ Panel, Eurofins) comprise a selection of off-targets linked with known issues in humans that could hinder or halt the development of drug candidates or market withdrawal if discovered after a drug is approved. The HCl salts of the S enantiomer and the R enantiomer of compound A were tested against a panel of such targets.
(§5) The tests were carried out according to the methods described in the following tables and indicated literature references.

M1 (h) [1] = molecular target: T3, M1 (h) (Homo sapiens, UniProt P11229); test: CEREP panel M1 (h) agonist effect, intracellular Ca2+ fluorimetry; assay type: cell-based; conditions: HCl salt tested, CHO cells
T3 construct: expressed in transfected cells; host or cells: CHO cells
T3 sequence (P11229 1-460): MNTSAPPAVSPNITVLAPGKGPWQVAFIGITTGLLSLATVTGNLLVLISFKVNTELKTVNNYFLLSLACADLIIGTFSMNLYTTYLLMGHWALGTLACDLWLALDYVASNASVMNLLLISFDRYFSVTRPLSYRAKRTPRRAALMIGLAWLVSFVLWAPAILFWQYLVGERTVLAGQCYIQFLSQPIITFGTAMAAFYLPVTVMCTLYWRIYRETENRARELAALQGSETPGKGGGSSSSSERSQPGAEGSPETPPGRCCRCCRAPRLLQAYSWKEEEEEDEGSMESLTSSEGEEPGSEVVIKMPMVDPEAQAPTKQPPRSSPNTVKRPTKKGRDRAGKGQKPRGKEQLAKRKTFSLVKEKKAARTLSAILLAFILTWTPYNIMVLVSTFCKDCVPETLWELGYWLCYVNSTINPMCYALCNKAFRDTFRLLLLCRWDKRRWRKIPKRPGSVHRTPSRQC
Text: as §4, §5

M1 (h) [2] = molecular target: T3, M1 (h); test: CEREP panel M1 (h) antagonist effect, intracellular Ca2+ fluorimetry; assay type: cell-based; conditions: HCl salt tested; CHO cells, acetylcholine (10 nM)
Text: as §4, §5

M2 (h) = molecular target: T4, M2 (h) (Homo sapiens, UniProt P08172); test: CEREP panel M2 (h) agonist effect, cAMP HTRF; assay type: cell-based; conditions: HCl salt tested, CHO cells
T4 construct: expressed in transfected cells; host or cells: CHO cells
T4 sequence (P08172 1-466): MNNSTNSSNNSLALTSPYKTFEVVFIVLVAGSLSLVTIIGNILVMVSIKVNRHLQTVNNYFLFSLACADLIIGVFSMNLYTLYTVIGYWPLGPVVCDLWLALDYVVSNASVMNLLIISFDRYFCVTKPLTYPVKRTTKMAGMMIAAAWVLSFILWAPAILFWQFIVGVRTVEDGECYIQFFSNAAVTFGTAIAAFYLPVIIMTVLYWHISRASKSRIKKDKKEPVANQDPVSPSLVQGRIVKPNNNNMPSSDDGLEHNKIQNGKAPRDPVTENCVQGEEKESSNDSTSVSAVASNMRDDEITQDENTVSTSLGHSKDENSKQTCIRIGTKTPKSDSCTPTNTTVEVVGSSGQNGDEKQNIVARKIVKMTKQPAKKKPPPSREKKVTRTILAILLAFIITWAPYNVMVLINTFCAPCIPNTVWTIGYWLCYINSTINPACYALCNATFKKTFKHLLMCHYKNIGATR
Text: as §4, §5

T2 sequence (P21554 whole entry): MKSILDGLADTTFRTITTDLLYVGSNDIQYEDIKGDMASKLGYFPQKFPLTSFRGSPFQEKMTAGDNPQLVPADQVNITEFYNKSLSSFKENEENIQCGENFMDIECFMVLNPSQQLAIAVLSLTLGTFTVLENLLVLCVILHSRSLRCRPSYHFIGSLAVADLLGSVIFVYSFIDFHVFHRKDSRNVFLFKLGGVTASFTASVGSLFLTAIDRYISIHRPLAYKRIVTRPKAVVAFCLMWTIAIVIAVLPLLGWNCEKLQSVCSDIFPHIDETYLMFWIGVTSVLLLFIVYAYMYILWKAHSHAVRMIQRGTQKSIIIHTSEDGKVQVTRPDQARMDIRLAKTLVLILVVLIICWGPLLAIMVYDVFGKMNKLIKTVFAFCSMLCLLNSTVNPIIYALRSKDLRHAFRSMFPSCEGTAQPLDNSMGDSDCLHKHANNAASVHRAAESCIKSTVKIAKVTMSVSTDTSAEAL
PKN1/PRK1, sequence (Q16512 whole entry): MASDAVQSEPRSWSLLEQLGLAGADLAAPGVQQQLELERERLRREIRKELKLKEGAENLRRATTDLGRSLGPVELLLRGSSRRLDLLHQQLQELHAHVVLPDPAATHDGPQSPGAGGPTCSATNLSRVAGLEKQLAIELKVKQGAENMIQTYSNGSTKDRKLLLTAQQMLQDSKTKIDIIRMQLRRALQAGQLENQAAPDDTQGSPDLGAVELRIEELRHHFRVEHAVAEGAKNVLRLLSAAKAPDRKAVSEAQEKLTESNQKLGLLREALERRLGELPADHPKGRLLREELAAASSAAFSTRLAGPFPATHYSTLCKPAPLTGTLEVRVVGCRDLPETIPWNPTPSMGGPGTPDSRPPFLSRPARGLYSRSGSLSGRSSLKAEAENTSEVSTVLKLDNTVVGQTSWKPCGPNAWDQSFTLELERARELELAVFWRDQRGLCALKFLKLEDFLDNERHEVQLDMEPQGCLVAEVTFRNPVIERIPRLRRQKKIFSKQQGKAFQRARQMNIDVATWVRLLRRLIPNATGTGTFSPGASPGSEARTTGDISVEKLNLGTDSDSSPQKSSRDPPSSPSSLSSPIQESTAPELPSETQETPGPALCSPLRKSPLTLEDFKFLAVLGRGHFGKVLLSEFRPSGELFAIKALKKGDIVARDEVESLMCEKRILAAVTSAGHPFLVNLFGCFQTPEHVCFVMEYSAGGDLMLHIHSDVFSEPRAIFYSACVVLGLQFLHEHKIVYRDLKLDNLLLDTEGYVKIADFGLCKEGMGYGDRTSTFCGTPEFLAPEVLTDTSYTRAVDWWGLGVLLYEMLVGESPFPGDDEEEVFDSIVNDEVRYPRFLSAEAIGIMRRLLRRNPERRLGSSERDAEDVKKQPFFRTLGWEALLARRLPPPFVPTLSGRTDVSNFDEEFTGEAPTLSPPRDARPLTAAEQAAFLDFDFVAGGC

Compound | IC50 (Haspin) [nM] | IC50 (PKN1/PRK1) [nM] | CB1 (h) (agonist effect) (EC50) (CB1 (h)) | M1 (h) (agonist effect) (EC50) (M1 (h) [1]) | IC50 (M1 (h) [2]) [nM] | EC50 (M2 (h)) [nM]
NCc1ccc(C(=O)Nc2ccncc2F)cc1-c1cccc(C(=O)Nc2ccc(SC[C@@H]3CCOC3=O)cc2)c1 [R-enantiomer] | 134 | 7.9 | Inactive | Inactive | 770 | > 10000
NCc1ccc(C(=O)Nc2ccncc2F)cc1-c1cccc(C(=O)Nc2ccc(SC[C@H]3CCOC3=O)cc2)c1 [S-enantiomer] | 297 | 8.5 | Inactive | Inactive | > 30000 | 93000
